These results are taken from patent publication US9708628B2, “Cationic lipid having improved intracellular kinetics” (NOF CORPORATION, priority 2011, dated 2017).

Assay type in all cases: cell-based
For assay [1], the system named is HT1080 cells. Kind of assay: Gene expression by MEND (luciferase assay, RLU/mg protein). To be noted: for gene expression activity (luciferase activity per cell protein): cationic lipid:SOPE:Chol=3:4:3, PEG2000DSG, pDNA 0.4 μg/well, 24 hr; for gene expression activity: B-2-4:DOPE:Chol=3:3:4, B-2-5:POPE:Chol=3:3:4, B-2:SOPE:Chol=5:3:2, PEG2000-DMG. On the procedure:
Using B-2 (Example 1), B-2-1 (Comparative Example 1), and DODAP (Comparative Example 2) as cationic lipids, MENDs having a composition of cationic lipid:SOPE:Chol=3:4:3 were prepared by the method described in [Experimental Example 1] (2). For the preparation, PEG2000DSG was used as PEG lipid, and MEND solutions corresponding to 0.55 mM of the lipid concentration were prepared. For cationic MEND, lipids having a composition of DOTAP:DOPE:Chol:=3:4:3 were used, and the cationic MEND was prepared according to the method described in [Experimental Example 1] (3).
HT1080 cells were plated on a 24-well plate at 4×10^4 cells/500 μL/well 24 hr before, various MENDs were diluted with DMEM (FBS 10%+) to a pDNA amount of 0.4 μg/500 μL/well and transfected. 24 hr later, the cells were washed with PBS(−) (500 μL), 1× Lysis buffer was added to each well by 75 μL, and the mixture was stood at −80° C. for 30 min or longer. The frozen 24-well plate was thawed on ice, the cells were detached with a cell scraper, and the total amount thereof was transferred into an Eppendorf tube and centrifuged under the conditions of 15000 rpm, 4° C., 5 min. The supernatant (50 μL) was recovered in a different Eppendorf tube, and used for luciferase assay and BCA assay.
20 μL thereof was mixed with a Luciferase assay substrate (50 μL), and the luciferase activity in a given time was measured by a luminometer. The obtained lysate was diluted 5-fold with DDW to achieve 25 μL total volume. Thereto was added BCA Protein Assay Reagent (200 μL), and the mixture was stood at 37° C. for 30 min. Thereafter, the absorbance at 562 nm was measured, and the protein amount of the sample was calculated from the absorbance of a BSA solution having a known concentration. The luciferase activity (RLU) was adjusted by dividing with protein amount (mg), and the luciferase activity per cell protein amount (RLU/mg protein) was calculated.
Using B-2 (Example 1), B-2-2 (Example 2), and B-2-3 (Example 3) as cationic lipids, MENDs having a composition of cationic lipid:SOPE:Chol=3:4:3 were prepared by the method described in [Experimental Example 1] (2). For the preparation, PEG2000DSG was used as PEG lipid, and MEND solutions corresponding to 0.55 mM of the lipid concentration were prepared. The gene expression was evaluated by the method described in [Example 4] (2).
Using compositions of B-2-4 (Example 4):DOPE:Chol=3:3:4, B-2-5 (Example 5):POPE:Chol=3:3:4, B-2 (Example 1):SOPE:Chol=5:3:2 as lipids, MENDs were prepared according to [Experimental Example 1](1) and (2). For the preparation, PEG2000-DMG was used as PEG lipid, and MEND solutions corresponding to 0.55 mM of the lipid concentration were prepared.
The gene expression activity was evaluated by the method described in [Experimental Example 4] (2).

For assay [2], the system named is HT1080 cells. Kind of assay: Time-course evaluation of gene expression using Kronos Dio (luciferase, RLU/2 min). The following applies: pDNA 1.6 μg/2 mL/dish. The procedure:
MENDs of B-2-4 (Example 4), B-2 (Example 1) were prepared according to [Experimental Example 1] (1), (2), and [Experimental Example 18]. For the preparation, PEG2000-DMG was used as PEG lipid, and MEND solutions corresponding to 0.55 mM of the lipid concentration were prepared. For cationic MEND, lipids having a composition of DOTAP (Comparative Example 3):DOPE:Chol:=3:4:3 were used, and the cationic MEND was prepared according to the method described in [Experimental Example 1] (3).
HT1080 cells were plated on a 3.5 cm cell culture dish at 4×10^4 cells/2 mL/dish 24 hr before, various MENDs were diluted with DMEM (FES 10%+, Phenol red free) containing a final concentration of 200 μM of D-luciferin potassium to achieve 1.6 μg/2 mL/dish based on the pDNA amount and transfection was performed. According to the Kronos Dio package insert, the luminescence amount was measured for 2 min every 20 min and taken as the luciferase activity (RLU/2 min).

Assay [3] deals with HT1080 cells. Kind of assay: Intracellular uptake pathway: influence of sucrose, amiloride, filipin on uptake amount. The following applies: 0.3M sucrose, 1 mM amiloride, 3 hr. On the procedure:
MENDs of B-2-4 (Example 4), B-2 (Example 1) were prepared according to [Experimental Example 1] (1), (2), [Experimental Example 18]. For the preparation, PEG2000-DMG was used as PEG lipid, and MEND solutions corresponding to 0.55 mM of the lipid concentration were prepared. pDNA was labeled with fluorescence according to the method described in [Experimental Example 15] (2).
HT1080 cells were plated on a 6-well plate at 2×10^5 cells/2 mL/well 24 hr before. The medium was changed to DMEM (FBS+) containing filipin at a final concentration of […] 30 min before transfection. The medium was changed to DMEM (FBS+) containing a final concentration of 0.3M sucrose, and 1 mM amiloride 15 min before transfection. For transfection, various MENDs were added to the dish at 1.6 μg/2 mL/dish based on the pDNA amount. 3 hr after the transfection, the intracellular pDNA amount was measured by the method described in [Experimental Example 19] (1).

For assay [4], the system named is HT1080 cells. As to the kind of experiment: Intracellular uptake pathway: influence of sucrose, amiloride, filipin on gene expression activity. To be noted: 0.3M sucrose, 1.5 mM amiloride. The procedure:
Using compositions of B-2-4 (Example 4):DOPE:Chol=3:3:4, B-2 (Example 1):SOPE:Chol=5:3:2 as lipid, MENDs were prepared according to [Experimental Example 1] (1), (2). For the preparation, PEG2000-DMG was used as PEG lipid, and MEND solutions corresponding to 0.55 mM of the lipid concentration were prepared.
HT1080 cells were plated on a 24-well plate at 4×10^4 cells/500 μL/well 24 hr before. The medium was changed to DMEM (FBS+) containing filipin at a final concentration of […] 30 min before transfection. The medium was changed to DMEM (FBS+) containing a final concentration of 0.3M sucrose, and 1.5 mM amiloride 15 min before transfection. For transfection, various MENDs were added to the well at 0.8 μg/500 μL/well based on the pDNA amount. Thereafter, the gene expression activity was evaluated by the method described in [Experimental Example 4] (2).

“Also recorded” adds a separate entry of the source.

For the compound `CCCCCCCCCCCCCC(=O)OCCCN(C)CCCCCCN(C)CCCOC(=O)CCCCCCCCCCCCC` [Example B-2-1, reference compound], the “gene expression activity (luciferase activity per cell protein)” value in assay [1] is recorded as “exceeded that of a conventionally-known cationic lipid, DODAP”.
Take `CC1=C(/C=C/C(C)=C/C=C/C(C)=C/C(=O)OCCCN(C)CCSSCCN(C)CCCOC(=O)/C=C(C)/C=C/C=C(C)/C=C/C2=C(C)CCCC2(C)C)C(C)(C)CCC1` [Example B-2-4]: the gene expression activity result in assay [1] was “significantly higher than the activity of B-2 and B-2-5”. Besides, in assay [2], the “gene expression activity (luciferase, RLU/2 min), time course” value is “significantly higher than that of MENDs formed from B-2-1 and DOTAP”. Further, in assay [3], the “intracellular uptake with sucrose, amiloride, filipin” value was “sucrose- and amiloride-sensitive”. Further, the “gene expression with sucrose, amiloride, filipin” value in assay [4] is “inhibited by amiloride”.
`Cc1c(C)c2c(c(C)c1OC(=O)CCC(=O)OCCCN(C)CCSSCCN(C)CCCOC(=O)CCC(=O)Oc1c(C)c(C)c3c(c1C)CCC(C)(CCCC(C)CCCC(C)CCCC(C)C)O3)CCC(C)(CCCC(C)CCCC(C)CCCC(C)C)O2` (centres unmarked) [Example B-2-5]: the gene expression activity result in assay [1] is given as “equivalent to the activity of B-2”.
Consider `CCCCCCCCCCCCCC(=O)OCCCN(C)CCSSCCN(C)CCCOC(=O)CCCCCCCCCCCCC` [Example B-2], for which the “gene transfer activity divided by the intracellular uptake amount” value in assay [1] (FIG. 4) was “high as compared to conventional DOTAP, DODAP and B-2-1”. Further, in assay [1], the “gene expression activity (luciferase activity per cell protein)” value is on record as “exceeded that of a conventionally-known cationic lipid, DODAP; also recorded: significantly higher than that of MEND prepared from B-2-1; also recorded: equivalent to that of DOTAP”. In assay [2], the “gene expression activity (luciferase, RLU/2 min), time course” value is listed as “equivalent to that of DOTAP”. For the same compound, the “intracellular uptake with sucrose, amiloride, filipin” value in assay [3] was “sucrose- and amiloride-sensitive”. In assay [4], the “gene expression with sucrose, amiloride, filipin” value was “inhibited by sucrose and amiloride”.
